Measurements from US6355799B1, “Substituted benzene compounds, process for their preparation, and herbicidal and defoliant compositions containing them” (ISK Americas Incorporated, priority 1997, dated 2002).

Columns and labels:
Type in all cases: in vivo
[1] = tested on: upland rice (Oryza sp., var. Tebonnet, RICE); assay: Post-emerge test, crop safety; settings: post-emerge, 14 days after application, rating scale 0-100
Outline: (§1)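 Applied at 15–1000 g ai/ha from acetone in 187 l/ha spray volume. Post-emergence applications included 0.25% v/v non-ionic surfactant and reached plants sown 8–21 days before. Pre-emergence applications were incorporated by surface watering. Efficacy or crop damage was rated on a 0–100 scale after 14 days.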

[2] = tested on: field corn (Zea mays L., var. Dekalb 535, CORN); assay: Post-emerge test, crop safety; settings: post-emerge, 14 days after application, rating scale 0-100
Outline: as §1

[3] = tested on: upland rice (Oryza sp., var. Tebonnet, RICE); assay: Pre-emerge test, crop safety; settings: for Pre-emerge Herbicidal Activity RICE: crop damage, phytotoxicity rating 0-100 at 14 days after application; for Pre-emerge phytotoxicity rating (0-100), crop damage, RICE: rated 14 days after application, 0 = no damage, 100 = complete death
Outline: (§2)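 Herbicidal damage is scored 0 (none) to 100 (complete plant death) two weeks after a simulated field spray. Rates span 15–1000 g ai/ha, delivered in acetone at 187 l/ha. For post-emergence treatments, plants have 2–3 leaves and the spray carries 0.25% v/v non-ionic surfactant.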

[4] = tested on: field corn (Zea mays L., var. Dekalb 535, CORN); assay: Pre-emerge test, crop safety; settings: for Pre-emerge Herbicidal Activity CORN: crop damage, phytotoxicity rating 0-100 at 14 days after application; for Pre-emerge phytotoxicity rating (0-100), crop damage, CORN: rated 14 days after application, 0 = no damage, 100 = complete death
Outline: as §2

[5] = tested on: velvetleaf (Abutilon theophrasti, ABUTH); assay: Post-emerge test, greenhouse herbicide activity screening; settings: post-emerge, 14 days after application, rating scale 0-100
Outline: (§3)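 Compounds in acetone were track-sprayed at 187 l/ha, 15–1000 g ai/ha, onto sandy loam pots. Pre-emerge seeds were sown one day before spraying, with surface watering afterwards. Post-emerge plants were at the 2–3 leaf stage and sprayed with 0.25% v/v non-ionic surfactant. Injury was rated 0–100 at 14 days.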

[6] = tested on: redroot pigweed (Amaranthus retroflexus, AMARE); assay: as above; settings: post-emerge, 14 days after application
Outline: as §3

[7] = tested on: large crabgrass (Digitaria sanguinalis, DIGSA); assay: as above; settings: post-emerge, 14 days after application, rating scale 0-100
Outline: as §3

[8] = tested on: johnsongrass (Sorghum halepense, SORHA); assay: as above; settings: post-emerge, 14 days after application, rating scale 0-100
Outline: as §3

[9] = tested on: lambsquarters (Chenopodium album, CHEAL); assay: as above; settings: post-emerge, 14 days after application, rating scale 0-100
Outline: as §3

[10] = tested on: sicklepod (Cassia obtusifolia, CASOB); assay: as above; settings: post-emerge, 14 days after application, rating scale 0-100
Outline: as §3

[11] = tested on: green foxtail (Setaria viridis, SETVI); assay: as above; settings: post-emerge, 14 days after application, rating scale 0-100
Outline: as §3

[12] = tested on: barnyardgrass (Echinochloa crus-galli, ECHCG); assay: as above; settings: post-emerge, 14 days after application, rating scale 0-100
Outline: as §3

[13] = tested on: ivyleaf morningglory (Ipomoea hederacea, IPOHE); assay: as above; settings: post-emerge, 14 days after application, rating scale 0-100
Outline: as §3

[14] = tested on: velvetleaf (Abutilon theophrasti, ABUTH); assay: Pre-emerge test, greenhouse herbicide activity screening; settings: for Pre-emerge Herbicidal Activity ABUTH: phytotoxicity rating 0-100 at 14 days after application; for Pre-emerge Herbicidal Activity, phytotoxicity rating (0-100), ABUTH: rated 14 days after application, 0 = no damage, 100 = complete death
Outline: as §1

[15] = tested on: large crabgrass (Digitaria sanguinalis, DIGSA); assay: as above; settings: for Pre-emerge Herbicidal Activity DIGSA: phytotoxicity rating 0-100 at 14 days after application; for Pre-emerge Herbicidal Activity, phytotoxicity rating (0-100), DIGSA: rated 14 days after application, 0 = no damage, 100 = complete death
Outline: as §1

[16] = tested on: johnsongrass (Sorghum halepense, SORHA); assay: as above; settings: for Pre-emerge Herbicidal Activity SORHA: phytotoxicity rating 0-100 at 14 days after application; for Pre-emerge Herbicidal Activity, phytotoxicity rating (0-100), SORHA: rated 14 days after application, 0 = no damage, 100 = complete death
Outline: as §1

[17] = tested on: lambsquarters (Chenopodium album, CHEAL); assay: as above; settings: for Pre-emerge Herbicidal Activity CHEAL: phytotoxicity rating 0-100 at 14 days after application; for Pre-emerge Herbicidal Activity, phytotoxicity rating (0-100), CHEAL: rated 14 days after application, 0 = no damage, 100 = complete death
Outline: as §1

[18] = tested on: sicklepod (Cassia obtusifolia, CASOB); assay: as above; settings: for Pre-emerge Herbicidal Activity CASOB: phytotoxicity rating 0-100 at 14 days after application; for Pre-emerge Herbicidal Activity, phytotoxicity rating (0-100), CASOB: rated 14 days after application, 0 = no damage, 100 = complete death
Outline: as §1

[19] = tested on: green foxtail (Setaria viridis, SETVI); assay: as above; settings: for Pre-emerge Herbicidal Activity SETVI: phytotoxicity rating 0-100 at 14 days after application; for Pre-emerge Herbicidal Activity, phytotoxicity rating (0-100), SETVI: rated 14 days after application, 0 = no damage, 100 = complete death
Outline: as §1

[20] = tested on: barnyardgrass (Echinochloa crus-galli, ECHCG); assay: as above; settings: for Pre-emerge Herbicidal Activity ECHCG: phytotoxicity rating 0-100 at 14 days after application; for Pre-emerge Herbicidal Activity, phytotoxicity rating (0-100), ECHCG: rated 14 days after application, 0 = no damage, 100 = complete death
Outline: as §1

[21] = tested on: ivyleaf morningglory (Ipomoea hederacea, IPOHE); assay: as above; settings: for Pre-emerge Herbicidal Activity IPOHE: phytotoxicity rating 0-100 at 14 days after application; for Pre-emerge Herbicidal Activity, phytotoxicity rating (0-100), IPOHE: rated 14 days after application, 0 = no damage, 100 = complete death
Outline: as §1

[22] = tested on: redroot pigweed (Amaranthus retroflexus, AMARE); assay: as above; settings: for Pre-emerge Herbicidal Activity AMARE: phytotoxicity rating 0-100 at 14 days after application; for Pre-emerge Herbicidal Activity, phytotoxicity rating (0-100), AMARE: rated 14 days after application, 0 = no damage, 100 = complete death
Outline: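 Sandy loam pots; pre-emerge: sown 1 d pre-spray, surface-watered after, then bottom-watered. Post-emerge: sown 8–21 d before, 2–3 leaf stage, + 0.25% v/v NIS, bottom-watered. Acetone, 187 l/ha track spray, 15–1000 g ai/ha. 0–100 injury score, day 14.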

[23] = 250 g ai/ha, rating scale 0-100

Cc1ccccc1COC(=O)Nc1c(C)c(Cl)cc(F)c1-n1c(=O)cc(C(F)(F)F)n(C)c1=O [4-56]
phytotoxicity rating RICE (crop damage) ([1]; 63 g ai/ha): 65
phytotoxicity rating RICE (crop damage) ([1]; 250 g ai/ha): 85
phytotoxicity rating CORN (crop damage) ([2]; 63 g ai/ha): 80
phytotoxicity rating CORN (crop damage) ([2]; 250 g ai/ha): 100
Pre-emerge Herbicidal Activity RICE ([3]; rate 63 g ai/ha): 50
Pre-emerge Herbicidal Activity RICE ([3]; rate 250 g ai/ha): 90
Pre-emerge Herbicidal Activity CORN ([4]; rate 63 g ai/ha): 35
Pre-emerge Herbicidal Activity CORN ([4]; rate 250 g ai/ha): 80
phytotoxicity rating ABUTH ([5]; 63 g ai/ha): 100
phytotoxicity rating ABUTH ([5]; 250 g ai/ha): 100
phytotoxicity rating AMARE ([6]; 63 g ai/ha, rating scale 0-100 (0 no damage, 100 complete death)): 100
phytotoxicity rating AMARE [6, 23]: 100
phytotoxicity rating DIGSA ([7]; 63 g ai/ha): 20
phytotoxicity rating DIGSA ([7]; 250 g ai/ha): 70
phytotoxicity rating SORHA ([8]; 63 g ai/ha): 40
phytotoxicity rating SORHA ([8]; 250 g ai/ha): 90
phytotoxicity rating CHEAL ([9]; 63 g ai/ha): 100
phytotoxicity rating CHEAL ([9]; 250 g ai/ha): 100
phytotoxicity rating CASOB ([10]; 63 g ai/ha): 100
phytotoxicity rating CASOB ([10]; 250 g ai/ha): 100
phytotoxicity rating SETVI ([11]; 63 g ai/ha): 90
phytotoxicity rating SETVI ([11]; 250 g ai/ha): 100
phytotoxicity rating ECHCG ([12]; 63 g ai/ha): 50
phytotoxicity rating ECHCG ([12]; 250 g ai/ha): 90
phytotoxicity rating IPOHE ([13]; 63 g ai/ha): 100
phytotoxicity rating IPOHE ([13]; 250 g ai/ha): 100
Pre-emerge Herbicidal Activity ABUTH ([14]; rate 63 g ai/ha): 100
Pre-emerge Herbicidal Activity ABUTH ([14]; rate 250 g ai/ha): 100
Pre-emerge Herbicidal Activity DIGSA ([15]; rate 63 g ai/ha): 50
Pre-emerge Herbicidal Activity DIGSA ([15]; rate 250 g ai/ha): 95
Pre-emerge Herbicidal Activity SORHA ([16]; rate 63 g ai/ha): 50
Pre-emerge Herbicidal Activity SORHA ([16]; rate 250 g ai/ha): 90
Pre-emerge Herbicidal Activity CHEAL ([17]; rate 63 g ai/ha): 100
Pre-emerge Herbicidal Activity CHEAL ([17]; rate 250 g ai/ha): 100
Pre-emerge Herbicidal Activity CASOB ([18]; rate 63 g ai/ha): 10
Pre-emerge Herbicidal Activity CASOB ([18]; rate 250 g ai/ha): 100
Pre-emerge Herbicidal Activity SETVI ([19]; rate 63 g ai/ha): 90
Pre-emerge Herbicidal Activity SETVI ([19]; rate 250 g ai/ha): 95
Pre-emerge Herbicidal Activity ECHCG ([20]; rate 63 g ai/ha): 50
Pre-emerge Herbicidal Activity ECHCG ([20]; rate 250 g ai/ha): 80
Pre-emerge Herbicidal Activity IPOHE ([21]; rate 63 g ai/ha): 40
Pre-emerge Herbicidal Activity IPOHE ([21]; rate 250 g ai/ha): 100
Pre-emerge Herbicidal Activity AMARE ([22]; rate 63 g ai/ha): 100
Pre-emerge Herbicidal Activity AMARE ([22]; rate 250 g ai/ha): 100

COc1c(Cl)cc(F)c(-n2c(=O)cc(C(F)(F)F)n(C)c2=O)c1NC(=O)C=Cc1ccccc1 [2-78]
phytotoxicity rating RICE ([1]; 63 g ai/ha): 50
phytotoxicity rating RICE ([1]; 250 g ai/ha): 65
phytotoxicity rating CORN ([2]; 63 g ai/ha): 25
phytotoxicity rating CORN ([2]; 250 g ai/ha): 30
Pre-emerge phytotoxicity rating (0-100), crop damage, RICE ([3]; 63 g ai/ha): 40
Pre-emerge phytotoxicity rating (0-100), crop damage, RICE ([3]; 250 g ai/ha): 95
Pre-emerge phytotoxicity rating (0-100), crop damage, CORN ([4]; 63 g ai/ha): 0
Pre-emerge phytotoxicity rating (0-100), crop damage, CORN ([4]; 250 g ai/ha): 10
phytotoxicity rating ABUTH ([5]; 63 g ai/ha): 100
phytotoxicity rating ABUTH ([5]; 250 g ai/ha): 100
phytotoxicity rating AMARE ([6]; 63 g ai/ha, rating scale 0-100): 100
phytotoxicity rating AMARE [6, 23]: 100
phytotoxicity rating DIGSA ([7]; 63 g ai/ha): 0
phytotoxicity rating DIGSA ([7]; 250 g ai/ha): 0
phytotoxicity rating SORHA ([8]; 63 g ai/ha): 0
phytotoxicity rating SORHA ([8]; 250 g ai/ha): 10
phytotoxicity rating CHEAL ([9]; 63 g ai/ha): 100
phytotoxicity rating CHEAL ([9]; 250 g ai/ha): 100
phytotoxicity rating CASOB ([10]; 63 g ai/ha): 70
phytotoxicity rating CASOB ([10]; 250 g ai/ha): 100
phytotoxicity rating SETVI ([11]; 63 g ai/ha): 30
phytotoxicity rating SETVI ([11]; 250 g ai/ha): 30
phytotoxicity rating ECHCG ([12]; 63 g ai/ha): 10
phytotoxicity rating ECHCG ([12]; 250 g ai/ha): 10
phytotoxicity rating IPOHE ([13]; 63 g ai/ha): 80
phytotoxicity rating IPOHE ([13]; 250 g ai/ha): 100
Pre-emerge Herbicidal Activity, phytotoxicity rating (0-100), ABUTH ([14]; 63 g ai/ha): 100
Pre-emerge Herbicidal Activity, phytotoxicity rating (0-100), ABUTH ([14]; 250 g ai/ha): 100
Pre-emerge Herbicidal Activity, phytotoxicity rating (0-100), DIGSA ([15]; 63 g ai/ha): 30
Pre-emerge Herbicidal Activity, phytotoxicity rating (0-100), DIGSA ([15]; 250 g ai/ha): 100
Pre-emerge Herbicidal Activity, phytotoxicity rating (0-100), SORHA ([16]; 63 g ai/ha): 10
Pre-emerge Herbicidal Activity, phytotoxicity rating (0-100), SORHA ([16]; 250 g ai/ha): 80
Pre-emerge Herbicidal Activity, phytotoxicity rating (0-100), CHEAL ([17]; 63 g ai/ha): 100
Pre-emerge Herbicidal Activity, phytotoxicity rating (0-100), CHEAL ([17]; 250 g ai/ha): 100
Pre-emerge Herbicidal Activity, phytotoxicity rating (0-100), CASOB ([18]; 63 g ai/ha): 100
Pre-emerge Herbicidal Activity, phytotoxicity rating (0-100), CASOB ([18]; 250 g ai/ha): 100
Pre-emerge Herbicidal Activity, phytotoxicity rating (0-100), SETVI ([19]; 63 g ai/ha): 90
Pre-emerge Herbicidal Activity, phytotoxicity rating (0-100), SETVI ([19]; 250 g ai/ha): 100
Pre-emerge Herbicidal Activity, phytotoxicity rating (0-100), ECHCG ([20]; 63 g ai/ha): 10
Pre-emerge Herbicidal Activity, phytotoxicity rating (0-100), ECHCG ([20]; 250 g ai/ha): 100
Pre-emerge Herbicidal Activity, phytotoxicity rating (0-100), IPOHE ([21]; 63 g ai/ha): 20
Pre-emerge Herbicidal Activity, phytotoxicity rating (0-100), IPOHE ([21]; 250 g ai/ha): 100
Pre-emerge Herbicidal Activity, phytotoxicity rating (0-100), AMARE ([22]; 63 g ai/ha): 100
Pre-emerge Herbicidal Activity, phytotoxicity rating (0-100), AMARE ([22]; 250 g ai/ha): 100
